In the supplement of paper PMC10307832 one finds relative viability data, which are given here for six cell lines.

Common to all, as to experiment: relative viability (nuclei count vs DMSO), 5 days (fraction); higher = more cells survive
Compound in assay [1]: COc1cc2nccc(Oc3ccc(NC(=O)C4(C(=O)Nc5ccc(F)cc5)CC4)cc3)c2cc1OC [Cabozantinib] + O=C(CCCCCCC(=O)Nc1ccccc1)NO [Vorinostat] (partner 1 µM)
The gist of the method: (§1)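 Relative viability is defined as nuclei in treated wells over nuclei in vehicle wells. Duplicate plates were run and medians reported. Lung cancer cell lines in 1536-well plates were dosed by pin tool one day after seeding, with one drug or with a fixed anchor-drug dose plus five library-drug doses (not always all listed) in √10 steps, and nuclei were counted after 5 days.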

Compound in assay [2]: COc1cc2nccc(Oc3ccc(NC(=O)C4(C(=O)Nc5ccc(F)cc5)CC4)cc3)c2cc1OC [Cabozantinib] + Nc1ncn([C@H]2C[C@H](O)[C@@H](CO)O2)c(=O)n1 [Decitabine] (partner 2 µM)
The essentials: as §1

Compound in the assay “Kobe2602 + Luminespib”: C1=CC(=CC=C1NC(=S)NNC2=C(C=C(C=C2[N+](=O)[O-])C(F)(F)F)[N+](=O)[O-])F [Kobe2602] + CCNC(=O)c1noc(-c2cc(C(C)C)c(O)cc2O)c1-c1ccc(CN2CCOCC2)cc1 [Luminespib] (partner 0.01 µM)
The essentials:
as §1

Compound in the assay “Zosuquidar + Bortezomib”: O[C@@H](COc1cccc2ncccc12)CN1CCN([C@@H]2c3ccccc3[C@@H]3[C@H](c4ccccc42)C3(F)F)CC1 [Zosuquidar] + CC(C)C[C@H](NC(=O)[C@H](Cc1ccccc1)NC(=O)c1cnccn1)B(O)O [Bortezomib] (partner 0.002 µM)
The essentials:
as §1

In the case of NCI-H3122, the relative viability in assay [1] (first compound 0.02 µM) is 0.992; in assay [1] (first compound 0.06325 µM), 1; in assay [1] (first compound 0.2 µM), 1.07; in assay [1] (first compound 0.6325 µM) it was 1.11; in assay [1] (first compound 2 µM), 1.02; in assay [2] (first compound 0.02 µM), 0.394. The relative viability worked out at 0.413 in assay [2] (first compound 0.06325 µM); 0.422 in assay [2] (first compound 0.2 µM); 0.411 in assay [2] (first compound 0.6325 µM); 0.467 in assay [2] (first compound 2 µM); 0.074 in the assay with Kobe2602 + Luminespib (first compound 0.2 µM); 0.0661 with Kobe2602 + Luminespib (first compound 0.6325 µM). For the same cell line, the relative viability came to 0.0867 with Kobe2602 + Luminespib (first compound 2 µM); 0.102 in the assay with Kobe2602 + Luminespib (first compound 6.325 µM); 0.0834 with Kobe2602 + Luminespib (first compound 20 µM); 0.942 in the assay with Zosuquidar + Bortezomib (first compound 0.01 µM); 0.93 in the assay with Zosuquidar + Bortezomib (first compound 0.03162 µM); 0.979 with Zosuquidar + Bortezomib (first compound 0.1 µM). Besides, the relative viability with Zosuquidar + Bortezomib (first compound 0.3162 µM) turned out to be 1.04; in the assay with Zosuquidar + Bortezomib (first compound 1 µM), 0.996.

With PC-3 [JPC-3], the relative viability turned out to be 0.694 in assay [1] (first compound 0.02 µM); 1.1 in assay [1] (first compound 0.06325 µM); 0.816 in assay [1] (first compound 0.6325 µM); 1.02 in assay [1] (first compound 2 µM); 0.782 in assay [2] (first compound 0.02 µM); 0.886 in assay [2] (first compound 0.06325 µM). Further, the relative viability came out at 0.872 in assay [2] (first compound 0.6325 µM); 0.797 in assay [2] (first compound 2 µM); 0.746 with Kobe2602 + Luminespib (first compound 0.2 µM); 0.799 with Kobe2602 + Luminespib (first compound 0.6325 µM); 0.713 with Kobe2602 + Luminespib (first compound 2 µM); 0.748 with Kobe2602 + Luminespib (first compound 6.325 µM). In addition, the relative viability with Kobe2602 + Luminespib (first compound 20 µM) stood at 0.649; with Zosuquidar + Bortezomib (first compound 0.01 µM), 0.849; with Zosuquidar + Bortezomib (first compound 0.03162 µM), 0.879; in the assay with Zosuquidar + Bortezomib (first compound 0.1 µM), 0.706; in the assay with Zosuquidar + Bortezomib (first compound 0.3162 µM), 0.765; in the assay with Zosuquidar + Bortezomib (first compound 1 µM), 0.863.

Regarding PC-14, the relative viability turned out to be 0.691 in assay [1] (first compound 0.02 µM); 0.956 in assay [1] (first compound 0.06325 µM); 0.692 in assay [1] (first compound 0.6325 µM); 0.748 in assay [1] (first compound 2 µM); 0.237 in assay [2] (first compound 0.02 µM); 0.203 in assay [2] (first compound 0.06325 µM). For the same cell line, the relative viability amounted to 0.219 in assay [2] (first compound 0.6325 µM); 0.249 in assay [2] (first compound 2 µM); 0.16 with Kobe2602 + Luminespib (first compound 0.2 µM); 0.161 with Kobe2602 + Luminespib (first compound 0.6325 µM); 0.307 with Kobe2602 + Luminespib (first compound 2 µM); 0.151 with Kobe2602 + Luminespib (first compound 6.325 µM). Also, the relative viability is 0.149 with Kobe2602 + Luminespib (first compound 20 µM); 0.846 with Zosuquidar + Bortezomib (first compound 0.01 µM); 0.992 with Zosuquidar + Bortezomib (first compound 0.03162 µM); 0.782 with Zosuquidar + Bortezomib (first compound 0.1 µM); 0.984 with Zosuquidar + Bortezomib (first compound 0.3162 µM); 0.78 in the assay with Zosuquidar + Bortezomib (first compound 1 µM).

In the case of RERF-LC-KJ, the relative viability turned out to be 0.65 in assay [1] (first compound 0.02 µM); 0.768 in assay [1] (first compound 0.06325 µM); 0.666 in assay [1] (first compound 0.2 µM); 0.801 in assay [1] (first compound 0.6325 µM); 0.75 in assay [1] (first compound 2 µM); 0.717 in assay [2] (first compound 0.02 µM). The relative viability in assay [2] (first compound 0.06325 µM) came to 0.735; in assay [2] (first compound 0.2 µM), 0.649; in assay [2] (first compound 0.6325 µM), 0.666; in assay [2] (first compound 2 µM), 0.746; with Kobe2602 + Luminespib (first compound 0.2 µM), 1.12; with Kobe2602 + Luminespib (first compound 0.6325 µM) it was 1.17. Besides, the relative viability with Kobe2602 + Luminespib (first compound 2 µM) is 1.2; with Kobe2602 + Luminespib (first compound 6.325 µM), 1.03; with Kobe2602 + Luminespib (first compound 20 µM), 0.515; with Zosuquidar + Bortezomib (first compound 0.01 µM), 1.17; with Zosuquidar + Bortezomib (first compound 0.03162 µM), 1.16; with Zosuquidar + Bortezomib (first compound 0.1 µM), 1.17. The values for the relative viability with Zosuquidar + Bortezomib (first compound 0.3162 µM) and with Zosuquidar + Bortezomib (first compound 1 µM) were 1.18 and 0.992, respectively.

Take SK-LU-1: the relative viability in assay [1] (first compound 0.02 µM) worked out at 0.719; in assay [1] (first compound 0.06325 µM) it was 1.04; in assay [1] (first compound 0.2 µM), 0.755; in assay [1] (first compound 0.6325 µM), 0.797; in assay [1] (first compound 2 µM), 0.72; in assay [2] (first compound 0.02 µM), 0.583. Moreover, the relative viability in assay [2] (first compound 0.06325 µM) worked out at 0.698; in assay [2] (first compound 0.2 µM), 0.668; in assay [2] (first compound 0.6325 µM), 0.631; in assay [2] (first compound 2 µM), 0.627; with Kobe2602 + Luminespib (first compound 0.2 µM), 0.204; with Kobe2602 + Luminespib (first compound 0.6325 µM), 0.222. Also, the relative viability in the assay with Kobe2602 + Luminespib (first compound 2 µM) worked out at 0.189; with Kobe2602 + Luminespib (first compound 6.325 µM) it was 0.188; with Kobe2602 + Luminespib (first compound 20 µM) it was 0.205; with Zosuquidar + Bortezomib (first compound 0.01 µM) it was 1.17; with Zosuquidar + Bortezomib (first compound 0.03162 µM), 1.14; with Zosuquidar + Bortezomib (first compound 0.1 µM), 0.962. Also, the relative viability with Zosuquidar + Bortezomib (first compound 1 µM) was determined as 1.41.

For the cell line SW 1573, the relative viability was 0.757 in assay [1] (first compound 0.02 µM); 0.844 in assay [1] (first compound 0.06325 µM); 0.961 in assay [1] (first compound 0.2 µM); 0.898 in assay [1] (first compound 0.6325 µM); 0.906 in assay [1] (first compound 2 µM); 0.476 in assay [2] (first compound 0.02 µM). Besides, the relative viability in assay [2] (first compound 0.06325 µM) was 0.573; in assay [2] (first compound 0.2 µM), 0.519; in assay [2] (first compound 0.6325 µM), 0.536; in assay [2] (first compound 2 µM), 0.416; in the assay with Kobe2602 + Luminespib (first compound 0.2 µM) it was 0.202; with Kobe2602 + Luminespib (first compound 0.6325 µM) it was 0.212. The relative viability with Kobe2602 + Luminespib (first compound 2 µM) stood at 0.21; with Kobe2602 + Luminespib (first compound 6.325 µM) it was 0.458; with Kobe2602 + Luminespib (first compound 20 µM), 0.0872; in the assay with Zosuquidar + Bortezomib (first compound 0.01 µM) it was 0.976; with Zosuquidar + Bortezomib (first compound 0.03162 µM) it was 0.987; in the assay with Zosuquidar + Bortezomib (first compound 0.1 µM) it was 1.04. The relative viability in the assay with Zosuquidar + Bortezomib (first compound 0.3162 µM) was 1.18; with Zosuquidar + Bortezomib (first compound 1 µM) it was 1.14.
